Results on 4 compounds are retold here after US6890520B2, “Thermally stable ferulic acid derivatives” (Wakayama Prefecture, priority 2003, dated 2005).

Molecules are shown by their SMILES.

Data set [1] is described as follows: Thermal decomposition temperature by thermogravimetric-differential thermal analyzer TG/DTA 6200. In kind it is physicochemical. The method, then:
A thermal decomposition temperature of bis-4,4′-(2-ethoxycarbonyl-1-ethenyl)-2,2′-methoxyphenoxymethane prepared in Example 1 was determined by using a thermogravimetric-differential thermal simultaneous analyzer “TG/DTA 6200” (commercially available from Seiko Instruments Inc.).
A thermal decomposition temperature of bis-4,4′-(2-2-ethyl-1-hexyloxycarbonyl-1-ethenyl)-2,2′-methoxyphenoxymethane prepared in Example 9 was determined by using a thermogravimetric-differential thermal simultaneous analyzer “TG/DTA 6200” (commercially available from Seiko Instruments Inc.).
A thermal decomposition temperature of bis-4,4′-(2-dodecyloxycarbonyl-1-ethenyl)-2,2′-methoxyphenoxymethane prepared in Example 10 was determined by using a thermogravimetric-differential thermal simultaneous analyzer “TG/DTA 6200” (commercially available from Seiko Instruments Inc.).

For data set [2] the following is noted: related art statement; cited from earlier work.

`CCOC(=O)C=Cc1ccc(OCOc2ccc(C=CC(=O)OCC)cc2OC)c(OC)c1` [Example 1, Bis-4,4′-(2-ethoxycarbonyl-1-ethenyl)-2,2′-methoxyphenoxymethane] gave a thermal decomposition point in data set [1] of 359 °C. Same read-out and setting: under `CCCCC(CC)COC(=O)C=Cc1ccc(OCOc2ccc(C=CC(=O)OCC(CC)CCCC)cc2OC)c(OC)c1` (stereo not shown) [Example 9, Bis-4,4′-(2-2-ethyl-1-hexyloxycarbonyl-1-ethenyl)-2,2′-methoxyphenoxymethane] stands 355 °C; under `CCCCCCCCCCCCOC(=O)C=Cc1ccc(OCOc2ccc(C=CC(=O)OCCCCCCCCCCCC)cc2OC)c(OC)c1` [Example 10, Bis-4,4′-(2-dodecyloxycarbonyl-1-ethenyl)-2,2′-methoxyphenoxymethane], 318 °C. In the case of `COc1cc(/C=C/C(=O)O)ccc1O` [ferulic acid], the decomposition temperature in data set [2] is 176 °C.
